Legend:
tMCAO mice = experiment: tMCAO model in mice (neurological deficit score, infarct volume, apoptosis, SG level); assay type: in vivo; details: for SG levels in the ischemic cortex / ischemic brain tissue: 48 mg kg^−1, i.p.
Method: Mice were kept anesthetized during surgery with 1% pentobarbital sodium (50 mg kg^−1, Sigma‐Aldrich, USA) by i.p. injection. Transient ischemia was induced by using the suture occlusion technique according to our previous studies.^[ [10] ^] Expose the common carotid artery area, insert a 6–0 sized silicon rubber‐coated filament into the left internal carotid artery until it reaches the approximate branch of the left middle cerebral artery, and leave it for 1–1.5 h to block blood flow. Then, the suture and the filament were removed, and the wounds were sutured. 24 h after the operation, a series of phenotypic evaluations was conducted on each mouse. The Bederson score was applied according to our previous studies.^[ [10] ^]
(§1) Apoptosis level was evaluated by TUNEL staining and flow cytometry. For TUNEL staining, HT22 cells were treated with 4% paraformaldehyde for 15 min. Then the fixed brain tissue slices and HT22 cells were permeabilized for 5 min using 1% Triton X‐100 (Sigma‐Aldrich, USA) dissolved in PBS. TUNEL staining was executed by following the instructions, using a one‐step TUNEL apoptosis assay kit (Meilunbio, China). Red fluorescence was utilized to identify apoptotic cells, while 4′, 6‐diamidino‐2‐phenylindole (DAPI) was used to counterstain the nuclei. The fluorescence microscope (Carl Zeiss, Germany) was used to obtain images. For flow cytometry, apoptotic cells were determined with the Annexin V‐Alexa Fluor 488/PI apoptosis detection kit (Yeasen, China) by following the instructions. EDTA‐free trypsin (Gibco, USA) was added to HT22 cells (2.5 × 10^5 cells). The cells were collected and washed with pre‐cooling PBS 2 times, then suspended in 250 µL 1× binding buffer. 100 µL cell suspension was dyed with 5 µL Annexin V‐Alexa Fluor 488 and 10 µL PI and plunged into darkness at room temperature for 15 min. Then the cell suspension was mixed with 400 µL of 1× binding buffer. Cell apoptosis was immediately determined by Cytek Aurora (Cytek Biosciences, USA).
(§2) Cells and tissues were homogenized in RIPA buffer (Beyotime, China) containing protease inhibitors (Biovision, USA) on ice for 30 min. After centrifugation (13000 r min^−1, 4 °C) for 10 min, the resulting supernatant was collected. The protein concentrations were determined by a BCA protein assay kit (Thermo Scientific, USA). After separating a 10% sodium dodecyl sulfate (SDS)‐polyacrylamide gel, protein on the gel was then transferred onto nitrocellulose membranes (Merck, USA), which were blocked with 5% bovine serum albumin for 1 h to prevent non‐specific binding. Then, the anti‐caspase 3 antibody (catalog no. 9662, Cell Signaling Technology, USA), anti‐Bcl‐2 antibody (catalog no. GTX100064, GeneTex, USA), anti‐G3BP1 antibody (catalog no. 66486‐1‐Ig, Proteintech, China), anti‐β‐tubulin antibody (catalog no. 66240‐1‐Ig, Proteintech, China), and anti‐β‐actin antibody (catalog no. 66009‐1‐Ig, Proteintech, China) were used for treating the membrane overnight at 4 °C. Bound antibodies were detected with the species‐appropriate horseradish peroxidase‐labeled secondary antibody (Jackson ImmunoResearch, USA) using ECL reagents (ShareBio, China). Protein‐specific signals were detected using a Bio‐Rad Imager (Bio‐Rad, USA), and the bands were quantified by densitometric analysis software (ImageJ). β‐tubulin or β‐actin was used as a loading control.
Cerebral infarction volume was evaluated by Nissl staining or 2,3,5‐triphenyltetrazolium chloride staining. The infarct volume was computed using image‐processing software (Image J), and the percentage of the infarct volume was calculated according to our previous studies.^[ [10] ^] For Nissl staining, the fixed brain tissue slices were washed twice with ultrapure water for 2 min each time. Next, they were stained with Nissl staining solution (Beyotime, China) at 37 °C for 10 min, washed twice with ultrapure water, washed once with 95% ethanol, and washed twice with 70% ethanol. […]

[1] = system: Primary rat cortical neurons; experiment: Cytotoxicity (50% cytotoxic concentration) by CCK-8 assay; assay type: cell-based; details: 24 h exposure
Method: Additionally, we investigated the effects of PB3, 6c, and EDA on apoptosis at a concentration of 50 µM. […] Therefore, the improvement in target accessibility could be one of the main reasons for the enhanced activity of 6c. The binding mode of 6c and the NTF2L domain of G3BP1 was analyzed by molecular docking (Figure S10B, Supporting Information). […] Cytotoxicities of 1 and 6c were determined by the detection of 50% cytotoxic concentration using the CCK‐8 assay. Primary rat cortical neurons ^[ [10] ^] were exposed to 200 µM gradient concentrations of compounds for 24 h.

[2] = system: HT22 cells under OGD/R injury; experiment: Apoptosis level of HT22 cells under OGD/R (TUNEL staining and immunoblotting); assay type: cell-based
Method: (§3) HT22 cells were washed with phosphate buffered saline (PBS), then DMEM sugar‐free medium (Gibco, USA) was added and placed in the anaerobic incubator of 5% CO2, 1% O2, and 37 °C for 6 h. PB3 or other compounds were previously dissolved in DMEM/F‐12 with 10% FBS and 1% penicillin/streptomycin. After undergoing OGD for 6 h, the medium was replaced by DMEM/F‐12 with 10% FBS and 1% penicillin/streptomycin containing PB3 or other compounds and kept in a humidified 5% CO2, 37 °C incubator for 24 h.
as §1, §2

OGD/R‐treated HT22 cells = experiment: Neuroprotective effect on OGD/R-treated HT22 cells, cell viability by CCK-8; assay type: cell-based; details: 6 h OGD; for viability at 2 µM / viability at 20 µM: Mus musculus, HT-22, 24 h reoxygenation with compound, relative to control cells, mean ± S.D., n = 3
Method: as §3
The CCK‐8 assay kit (Yeasen, China) was used to assess cell viability. All operations were performed following instructions. HT22 cells were seeded into the 96‐well plate (3000 cells per well). The cells were cultured at 37 °C with 5% CO2 in a humidified incubator overnight. After 6 h of OGD, the medium was replaced by DMEM/F‐12 with 10% FBS and 1% penicillin/streptomycin containing PB3 or other compounds and kept in a humidified 5% CO2, 37 °C incubator for 24 h. Then, the cells were washed with PBS, the medium was replaced with DMEM/F‐12 with 10% FBS and 1% penicillin/streptomycin containing 10% CCK‐8 solution, and incubated for 1 h at 37 °C. The absorbance was assessed by a Synergy H1 multi‐mode microplate reader (BioTek, USA) at 450 nm.

[3] = 48 mg kg^−1 i.p., compared to the model group
[4] = 50 and 100 µM, compared with the model group
[5] = 50 µM, compared with the model group

Compound | SG levels in the ischemic cortex / ischemic brain tissue (tMCAO mice) | neurological deficit score (tMCAO mice; 48 mg kg^−1 i.p., 1.5 h MCAO, 24 h after reperfusion) | infarct volume (tMCAO mice; 48 mg kg^−1 i.p., 1.5 h MCAO, 24 h reperfusion, Nissl staining) | apoptosis level (TUNEL staining of frozen brain sections) (tMCAO mice; [3]) | expression level of Bcl‐2 in the ischemic cortex (tMCAO mice; [3]) | expression level of cleaved caspase‐3 in the ischemic cortex (tMCAO mice; [3]) | 50% cytotoxic concentration [1] | expression of Bcl‐2 [2, 4] | expression of cleaved caspase‐3 [2, 4] | rate of TUNEL‐positive cells ([2]; HT22, OGD/R, different concentrations) | viability at 2 µM (OGD/R‐treated HT22 cells) | viability at 20 µM (OGD/R‐treated HT22 cells) | cell viability rate (OGD/R‐treated HT22 cells; PB3 at 20 to 400 µM, 24 h treatment) | neuroprotective activity compared with the model group (tMCAO mice; 48 mg kg^−1, 1.5 h of MCAO and 24 h of reperfusion) | reduction of infarct volume (tMCAO mice; 1 h ischemia, i.p. injection after reperfusion, 24 h after reperfusion) | neurological deficit score (tMCAO mice; 1 h ischemia, i.p. injection after reperfusion, 24 h after reperfusion, preliminary screening) | infarct area and neurological function at different doses (tMCAO mice; 1.5 h of MCAO and 24 h of reperfusion) | expression of Bcl‐2 [2, 5] | expression of cleaved caspase‐3 [2, 5] | rate of TUNEL‐positive cells [2, 5]
Oc1cc(O)c2c(c1)O[C@H](c1ccc(O)c(O)c1)[C@@H](O)[C@@H]2c1c(O)cc(O)c2c1O[C@H](c1ccc(O)c(O)c1)[C@@H](O)C2 [Compound 1, procyanidin B3] | significantly enhanced SG levels | improved neurological deficits | significantly reduced | significantly reduced | increased | decreased | over 200 µM | significantly increased | significantly decreased | dose‐dependently reduced | 63.9 ± 3.36% | 70.9 ± 6.71% | significantly improve cell viability rate | – | – | – | – | – | – | –
CC(C)c1c(O)cc(O)c2c1O[C@H](c1ccc(O)c(O)c1)[C@@H](O)[C@@H]2c1c(O)cc(O)c2c1O[C@H](c1ccc(O)c(O)c1)[C@@H](O)C2 [Compound 6c, 8‐Isopropyl‐(+)‐Catechin‐(4α,8)‐(+)‐Catechin] | mediate SG upregulation | – | – | – | – | – | over 200 µM | – | – | – | 66 ± 1.97% | 83.6 ± 4.34% | – | best neuroprotective activity | ≈ 30% | more pronounced trend toward improving neurological deficits | therapeutic effect on ischemic injury in a dose‐dependent manner | increase the expression of Bcl‐2 | decrease the expression of cleaved caspase‐3 | reduce the rate of TUNEL‐positive cells

Source: PMC12677652, “Procyanidin B3 and Its Derivatives Alleviate Neuronal Injury by Targeting G3BP1 for Ischemic Stroke Therapy” (Advanced Science, 2025)
